Results: patent publication US12290496B2, “Compounds for use in preventing or treating athlete overtraining” (TDELTAS LIMITED, priority 2018, dated 2025)

Experiments:
[1] = Circulating (R)-3-hydroxybutyrate levels and gut uptake after consumption of esters; format: in vivo
[2] = Submaximal heart rate during first 5 minutes of 30-min time trial (FIG. 5); format: in vivo, human; details: 3-week training overload period
Protocol: (§1) A randomized placebo-controlled (ketone ester versus placebo) intervention study was performed. The study involved a pretest and a posttest with a 3-week training overload period in between (Table 1A). During this 3-week period, subjects received either ketone ester or an isocaloric placebo (long chain triglyceride) after each training session and 30 minutes before sleep. The conditions were blinded to both the subjects and the investigators until completion of all the experiments.
For the first experimental session, after a 10-min warming up (5 min at 100 W, plus 5 min at 150 W), the subjects performed a TT30min. During the first 5 minutes (t0-t5), the workload was set equal to the mean power output achieved during the TT30min in the last familiarization session. From t5 to t25, the subjects adjusted the workload at 5-min intervals according to their subjective perception of fatigue. From t25 to t30, 1-min adjustments were allowed so as to be able to establish full exhaustion by the end of the TT. Immediately after completion of the TT, subjects (1) scored the rate of perceived exertion on a 15-point Borg scale and completed a gastrointestinal symptom questionnaire. Following 15 min of active recovery (cycling @ 50 W), subjects performed a W30s. One day later, the subjects returned to the laboratory for the second experimental session. During this session a VO2max test was performed. […]

leptin = assay: Leptin levels in fasted plasma samples (FIG. 8); format: in vivo, human
Protocol: as §1
(§2) Immediately following each training session and 30 min before sleep, subjects received a recovery drink (6D Recovery Shake, Medix, Oudenaarde, Belgium) containing 1 g carbohydrates per kg body weight, plus 0.35 g whey protein isolate per kg body weight. Additionally, subjects received 0.35 g per kg body weight of a ketone ester drink or an isocaloric placebo (PL; long chain triglycerides) as a separate drink to be ingested together with the carbohydrate/protein recovery drink. The ketone ester supplement (ΔG®) delivered pure D-β-hydroxybutyrate-R 1,3 butanediol monoester. These nutritional supplements have been extensively tested before (see for instance Cox et al; Cell Metab 24: 256-268, 2016).
Blood samples (2×5 ml) were taken from an arm vein by use of the Venoject® system into BD Vacutainer® tubes. […]

[3] = DXA scanning before and after 3-week training period (FIG. 6); format: in vivo, human; details: 3-week training overload period
Protocol: as §1, §2

[4] = Training volume / work per week and per session (FIG. 10, 11); format: in vivo, human
Protocol: Following the pre-test, participants were enrolled in a 3-week supervised and fully-controlled exercise training program. Each week of the training program consisted of six training days with an interval training in the morning and an endurance training in the evening, for a total of twelve training sessions per week (Table 2).
The number of maximal sprints in the HIIT sessions increased from 4 in week 1, to 5 in week 2 and 6 in the final week. Endurance sessions were performed in the evening and consisted of 150 min of cycling at 65% VO2max. During the 3-week training period the subjects abstained from any exercise other than the exercise prescribed by the study protocol.
as §2

[5] = acute ingestion, elite cyclists; cited from earlier work
[6] = 30-minute time trial after 2 h submaximal constant-load exercise bout, day 18 (FIG. 3); format: in vivo, human
Protocol: as §1, §2
FIG. 3 illustrates the 30 minute time trial performance results at the end of a 120 minute constant-load endurance training session at day 18 of the training period. […]

[7] = Peak heart rate during 90 second all-out isokinetic sprint (FIG. 4); format: in vivo, human; details: 90 second all-out isokinetic sprints, 3-week training overload period
Protocol: as §1, §2
FIG. 4A gives the absolute values, and FIG. 4B gives the decrease in heart rate (Δ) from the pre-test values. […]

[8] = Food (energy) intake during 3-week training period (FIG. 7); format: in vivo, human; details: placebo energy intake stable
Protocol: as §1, §2

noradrenaline = assay: Urinary total nocturnal noradrenaline excretion (FIG. 9b); format: in vivo, human; details: before and during 3-week overreaching/overtraining period; consistently elevated in placebo
Protocol: as §1, §2
Total nocturnal urine (10 pm to 8 am) was collected during the night before each experimental session in flasks prepared with 10 ml hydrochloric acid. […]

[9] = 30-minute simulated cycling time trial (TT30min) performance (FIG. 2); format: in vivo, human
Protocol: as §1
Three weeks prior to the start of the study, subjects underwent a sport medical screening by a certified sports physician. One week later, the subjects participated in three familiarization sessions (Table 1B) to get familiar with the experimental procedures. […] Respiratory gas exchange was measured continuously during the test (Cortex Metalyzer II, Leipzig, Germany), and the highest oxygen uptake measured over a 30-s period defined as the maximal oxygen uptake (VO2max). […]
For the first experimental session, after a 10-min warming up (5 min at 100 W, plus 5 min at 150 W), the subjects performed a TT30min. […] Immediately after completion of the TT, subjects (1) scored the rate of perceived exertion on a 15-point Borg scale and completed a gastrointestinal symptom questionnaire. […]

[10] = Blood ketone (β-hydroxybutyrate) levels during 3-week training overload study (FIG. 1); format: in vivo, human; details: 30 minutes following ingestion; days 6, 13 and 20
Protocol: as §1
as §2, with “The ketone ester supplement (ΔG®) delivered pure D-β-hydroxybutyrate-R 1,3 butanediol monoester. These nutritional supplements have been extensively tested before (see for instance Cox et al; Cell Metab 24: 256-268, 2016).” left out
Furthermore, during TT30min small capillary blood samples (5 μl) were collected at 5-min time intervals via a small puncture in the earlobe. These microsamples were immediately analyzed for blood lactate concentration (Lactate Pro®, Arkray, Kyoto, Japan), blood glucose and βHB levels (GlucoMen Lx plus-meter with Lx glucose or Lx β-ketone strips, Menarini Diagnostics, Firenze, Italy). […]

Compound: (R)-3-hydroxybutyrate-glycerol partial ester
- circulating levels of (R)-3-hydroxybutyrate in the blood ([1]; upon consumption of a drink): high circulating levels
- level of uptake in the gut ([1]; upon consumption of a drink): surprisingly high level of uptake

Compound: C[C@@H](O)CCOC(=O)C[C@@H](C)O [ketone ester, (R)-3-hydroxybutyl (R)-3-hydroxybutyrate]
- decline in submaximal heart rate vs. pre-test, versus placebo [2]: significantly less
- leptin levels compared to placebo (leptin; all timepoints after the pretest): higher at all timepoints
- leptin levels from pretest to posttest (leptin; significantly dropped in placebo group): constant
- bone mineral content in post-test compared to placebo [3]: increased bone mineral content
- changes in body fat compared with placebo [3]: did not alter
- changes in lean body mass compared with placebo [3]: did not alter
- workload effected during each single training session versus placebo ([4]; from day 20): higher
- training load versus placebo ([4]; week 3): definitely higher
- training load versus placebo ([4]; weeks 1 and 2): no difference
- endurance performance [5]: improve endurance performance
- increase in mean power output compared with placebo drink ([6]; day 18 of training period): ~15%
- average power in 30 minute time trial versus placebo group ([6]; end of 120 minute constant-load endurance session, day 18): significantly higher
- decline in maximum (peak) heart rate from pre-test, versus placebo [7]: significantly less
- daily energy intake from week 1 to week 3 [8]: spontaneously increased
- circulating levels of (R)-3-hydroxybutyrate in the blood ([1]; in vivo): high circulating levels
- level of uptake in the gut ([1]; in vivo): surprisingly high level of uptake
- urinary total nocturnal noradrenaline excretion (noradrenaline): stable at baseline levels
- increase in power output from pre-test ([9]; following 1 week of tapering after 3-week training overload period, not increased in placebo group): ~8%
- average power during 30 minute time trial versus placebo ([9]; post-test and follow-up 1): significantly higher
- blood β-hydroxybutyrate levels versus placebo drink [10]: significantly higher
